The nature of data set [1]: Ferric Reducing Antioxidant Power assay (FRAP). Conditions: 593 nm. As to the method: The FRAP assay is a widely used method based on a colorimetric reaction linked to a redox and on the use of antioxidants as reducing agents.
The test evaluates the capacity of a sample to reduce ferric to ferrous ions in the presence of TPTZ (2,4,6-tripyridyl-s-triazine). The reaction mixture consists of 0.1 M acetate buffer pH 3.6, 10 mmol/L TPTZ in 40 mmol/HCl, and 20 mmol/L ferric chloride in the ratio 10/1/1 (v:v:v) as described by Benzie et al.. A total of 1.9 mL of reagent was added to 0.1 mL of suitably diluted sample or solvent. The absorbance values were measured using the UV-VIS spectrophotometer at 593 nm and expressed as µmol TE/g compound.

The next data set deals with Microsporum gypseum. As to the kind of experiment: Antidermatophyte activity, plaque growth inhibition. Conditions: Nannizzia gypsea; 100 μg/mL, SDA; read-out: % Inhibition Growth M. gypseum. The class given is cell-based, Microsporum gypseum CBS 130,948. On the procedure: (§1) The dermatophytes used in this study were Epidermophyton floccosum var. floccosum (Netherlands) CBS 358.93 strain, Trichophyton tonsurans (Netherlands) CBS 483.76 strain, Trichophyton mentagrophytes (Netherlands) CBS 160.66 strain, Microsporum canis (Iran) CBS 131,110 strain, and Microsporum gypseum (Iran) CBS 130,948 strain. All dermatophytes were maintained at 4 °C as agar slants on SDA. Candida albicans (ATCC 10231) was maintained at 4 °C on SDA plate.
(§2) The in vitro antifungal activity against the five selected dermatophytes was evaluated, as previously described, using the plaque growth inhibition method. All compounds were evaluated at the final concentration of 100 µg/mL. The percentages of growth inhibition according to Equation (5) were calculated as the average of three different experiments. I = [(C − T)/C] × 100%,(5) where I is the percentage value of growth inhibition, C is the measure of the diameter of the control circular mycelial inoculum (mm) and T is the extended diameter of the treated mycelial inoculum (mm).
(§3) All synthesized benzothiazole derivatives were evaluated to evaluate their in vitro antifungal activity against the five pathogenic dermatophytes that cause the most common dermatomycoses: Microsporum gypseum, Microsporum canis, Trichophyton mentagrophytes, Trichophyton tonsurans and Epidermophyton floccosum. All compounds were tested at a concentration of 100 µg/mL in DMSO, to evaluate the ability to inhibit the growth of dermatophyte cultures in Sabouraud Dextrose Agar (SDA). Briefly, room temperature incubation was performed and dermatophyte inhibition assessed by measuring the colony diameter at each disc for 7 days. The results are shown in Table 3 and were determined as the average of three different experiments.

Data set [2] deals with Trichophyton mentagrophytes. Described as above. It is filed as cell-based, Trichophyton mentagrophytes CBS 160.66. The following applies: 100 μg/mL, SDA, read-out: % Inhibition Growth T. mentagrophytes. As to the method: as §1, §2, §3
Another data set concerns Epidermophyton floccosum. Described as above. It is filed as cell-based, Epidermophyton floccosum var. floccosum CBS 358.93. Conditions: 100 μg/mL, SDA, read-out: % Inhibition Growth E. floccosum. On the procedure: as §1, §2, §3
Another data set concerns Trichophyton tonsurans. The data set is described as above. The class given is cell-based, Trichophyton tonsurans CBS 483.76. Conditions: 100 μg/mL, SDA, read-out: % Inhibition Growth T. tonsurans. As to the method: as §1, §2, §3
The nature of data set [3]: UV spectra of compounds in solution (filtering parameters). The class given is physicochemical. On the procedure:
The evaluation of the sun protection parameters has been carried out using a UV-Vis spectrophotometer. The absorbance of the solutions of the test compounds dissolved in the different solvents (DMSO, MeOH, DMSO–H2O 4:6, DMSO–H2O 6:4, HE) at a concentration of 0.0015 (±0.000005)% was recorded in the range 290–400 nm using a 1 cm quartz cell at 1 nm intervals. It was decided to evaluate the profile of the compounds in the Peg-7 Glyceryl Cocoate (HE) oil, which is the emollient of choice to solubilize the compounds in a formulation suitable for in vivo analysis. Wavelength absorbance is in relationship with transmittance (T (λ)) from Equation (2) A (λ) = […](2) where T (λ) is the fraction of incident irradiance that is transmitted through a sample.
The three parameters were determined, respectively, in DMSO and in methanol in order to perform a comparison (Table S1).
Since DMSO is a solvent with characteristics very close to those of an oil, the analysis was also carried out in solutions that mimic the possible conditions of a formulation. For this reason, the 4:6 and 6:4 proportions of DMSO–H2O were chosen to evaluate the choice of an oil-in-water or water-in-oil emulsion.

The subject of the next data set is Microsporum canis. The data set is described as follows: Antidermatophyte activity, plaque growth inhibition. The class given is cell-based, Microsporum canis CBS 131,110. The following applies: 100 μg/mL, SDA, read-out: % Inhibition Growth M. canis. On the procedure: as §1, §2, §3
The next data set in a line: In vitro DPPH test. Conditions: compounds at 1 mg/mL, 30 min, 517 nm. As to the method: The assay performed is adapted from Wang et al.. Briefly, 0.750 mL of 1 mg/mL solutions of the tested compounds was treated with 1.5 mL of DPPH solution in MeOH. The absorbance of samples, stored for 30 min at room temperature in the dark, was read on the spectrophotometer at 517 nm. The values obtained were converted into a radical inhibition percentage (%) by Equation (1). DPPH radical scavenging capacity (%) = [1 − A1/A0] × 100%(1) where A0 and A1 were, respectively, the absorbance without and with the sample. Subsequently, the compound with the best profile was tested in order to determine the IC50 (µg/mL). A linear regression plot is performed to calculate the actual sample concentration required to eliminate 50% of the DPPH free radicals.
The antioxidant activity of a molecule is very important and, if present, it can be synergistic with the SPF described above in reducing the damage that is ROS-induced by UV rays. For this reason, the synthesized compounds were assayed in vitro to assess their antioxidant profiles by means of the DPPH and FRAP assays (Table 2). Regarding the ability to scavenge the stable radical 2,2-diphenyl-1-picrylhydrazyl (DPPH), it was decided to investigate first the compounds synthesized at the same concentration (1 mg/mL) and evaluate the percentage of inhibition of the radical DPPH.
(In general: The DPPH test is a chemical assay of radical scavenging.)

In data set [4] the test system is Candida albicans (ATCC 10231). The data set is described as follows: Anti-Candida albicans activity, broth microdilution MIC. The following applies: Candida albicans, ATCC10231; 24 h of incubation. It is filed as cell-based. On the procedure: as §1
The suspension of Candida albicans consists of the dispersion of an aliquot in 5 mL of sterilized water. The compounds and fluconazole, used as a positive control, were solubilized in DMSO (12.80 mg/mL) as stock solutions. Minimum inhibitory concentration (MIC) was performed by the broth microdilution method according to the approved standard M27-A3, 2008 [NCCLS] of the Clinical and Laboratory Standards Institute/National Committee for Clinical Laboratory Standards (CLSI/NCCLS), as described previously.
Candida is a strain of fungi known to transmit infections to different parts of the human body, including the skin [43], which is why the synthesized compounds have also been tested against Candida Albicans (ATCC 10231). For each of them the minimum inhibitory concentration (MIC) was determined by the broth microdilution method using RPMI 1640 + MOPS as culture medium. […] Fluconazole was used as a positive control drug. […] Similarly to the results observed on dermatophytes, therefore, the unsubstituted compounds in position 6 of benzimidazole gave activity on yeasts, except for compound 8a.
Background: Dilution methods test growth across graded concentrations, often in twofold steps.

In brackets after ≈: the same amount, converted by molar mass.

In general, inhibition refers to the relative decrease from the control value, in per cent. As usually defined, the melting point is the temperature, or range, at which the solid turns liquid. Regarding `O=C(O)c1ccc2nc(-c3cccs3)sc2c1` [Compound 10b, 2-(Thiophen-2-Yl)benzothiazole-6-Carboxylic Acid], the melting point was greater than 250 °C. In addition, the FRAP in [1] is 133.91 ± 8.13 μmolTE/g. Further, the inhibition at 100 µg/mL in the data set on Microsporum gypseum was 18.5 ± 1.23%. For the same compound, the inhibition at 100 µg/mL in data set [2] is 14.2 ± 1.01%. In the data set on Epidermophyton floccosum, the inhibition at 100 µg/mL was 28.3 ± 1.04%. For the same compound, the inhibition at 100 µg/mL with Trichophyton tonsurans turned out to be 65.5 ± 1.58%. In data set [3] (DMSO), the “A (absorbance)” value turned out to be 1.160, the “ε (molar extinction coefficient)” value was determined as 17818.74 and the λmax came out at 340.00 nm. In addition, in data set [3] (MeOH), the “A (absorbance)” value is recorded as 1.140, the “ε (molar extinction coefficient)” value worked out at 21268.66 and the λmax came to 334.57 nm. Further, the inhibition at 100 µg/mL in the data set on Microsporum canis worked out at 27.6 ± 1.47%. Also, in the data set “In vitro DPPH test”, the “DPPH (% Inhibition)” value was determined as 46.04 ± 0.07%.

Usually MIC stands for the lowest concentration found to suppress growth. A lower MIC goes with greater potency. Turning to `OC(Cn1cncn1)(Cn1cncn1)c1ccc(F)cc1F` [Fluconazole, reference compound], the inhibition at 100 µg/mL was found to be 18.2 ± 0.9% in the data set with Microsporum gypseum; 3.75 ± 0.24% in data set [2]; 0.12 ± 0.004% with Epidermophyton floccosum; 18.7 ± 0.62% in the data set with Trichophyton tonsurans; 30.1 ± 0.4% in the data set with Microsporum canis. Moreover, the MIC in data set [4] was 0.5 µg/mL (≈ 1.63 µM).
